Assay results: the supplement of paper PMC3974653
Counter-ions that a name gives are not always drawn.

Tested on: MTT (mouse pheochromocytoma)
Experiment: IC50 of cell viability (ATP content)
Details: (24 or 48 h)
Summary of the method: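 CellTiter-Glo ATP luminescence, read after 15 minutes, was used to assess MTT mouse pheochromocytoma cells treated for 24 or 48 hrs with library compounds (final 0.5 nM to 46 µM, 8 concentrations). The cells had been plated at 5 µl of 200,000 cells/ml per well in white 1536-well plates in DMEM with 5% FBS and 1% horse serum and cultured overnight at 37°C, 5% CO2. Normalisation set positive-control wells to 100% and DMSO wells to 0%. The IC50 was then determined by four-parameter logistic fitting.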

Structure (SMILES) | IC50 of cell viability [µM]
O=C(O)Cc1ccc(-c2ccccc2)cc1 [Felbinac] | > 46
CCOC(=O)\C1=C(/C)N\C(=C(/C1C2=CC=CC(=C2Cl)Cl)C(=O)OC)C (stereo not given) [Felodipine] | > 46
CN(C)c1ccc(/N=N/S(=O)(=O)[O-])cc1 [Fenaminosulf] | > 46
CCOP(=O)(NC(C)C)Oc1ccc(SC)c(C)c1 (stereo not given) [Fenamiphos] | > 46
Nc1nnnn1-c1ccccc1 [Fenamol] | > 46
Nc1ccc(/N=N/c2ccccc2)c(N)n1 [Fenazopiridina] | > 46
O=C(O)CCC(=O)c1ccc(-c2ccccc2)cc1 [Fenbufen] | > 46
COP(=S)(OC)Oc1cc(Cl)c(Cl)cc1Cl [Fenchlorphos] | > 46
O=C(O)Cc1ccccc1Oc1ccc(Cl)cc1Cl [Fenclofenac] | > 46
O=C(O)Cc1csc(-c2ccc(Cl)cc2)n1 [Fenclozic acid] | > 46
CC(Cc1ccccc1)NCCn1cnc2c1c(=O)n(C)c(=O)n2C (stereo not given) [Fenethylline] | > 46
NC(=O)NNc1ccccc1 [Fenicarbazida] | > 46
CNC[C@H](O)c1cccc(O)c1 [Fenilefrina] | > 46
CN1CC(=O)\N=C1\NC(=O)NC2=CC(=CC=C2)Cl [Fenobam] | > 46
CC(C)OC(=O)C(C)(C)Oc1ccc(C(=O)c2ccc(Cl)cc2)cc1 [Fenofibrate] | > 46
O=[S+]1([O-])OC(c2ccc(O)cc2)(c2ccc(O)cc2)c2ccccc21 [Fenolipuna] | > 46
C[C@H](C(=O)[O-])c1cccc(Oc2ccccc2)c1.C[C@H](C(=O)[O-])c1cccc(Oc2ccccc2)c1.O.O.[Ca+2] [Fenoprofen calcium salt dihydrate] | > 46
C[C@@H](Cc1ccc(O)cc1)NC[C@@H](O)c1cc(O)cc(O)c1 [Fenoterol hydrobromide] | > 46
c1ccc2c(c1)Nc1ccccc1S2 [Fenotiazina] | > 46
CC(COc1ccccc1)N(CCCl)Cc1ccccc1 (stereo not given) [Fenoxibenzamina] | > 46
COP(=S)(OC)Oc1ccc(SC)c(C)c1 [Fenthion (Baytex)] | > 46
O=C(O)Cc1sc(-c2ccccc2)nc1-c1ccc(Cl)cc1 [Fentiazac] | > 46
O=C(O)CC1=S=C(c2ccccc2)N=C1c1ccc(Cl)cc1 [Fentiazac] | > 46
Oc1ccc(Cl)cc1Sc1cc(Cl)ccc1O [Fenticlor] | > 46
C\C(C)=C\CC1C(=O)N(N(C1=O)C2=CC=CC=C2)C3=CC=CC=C3 [Feprazone] | > 46
O=C([O-])CN(CCN(CC(=O)[O-])CC(=O)[O-])CC(=O)[O-].[Fe+3].[Na+] [Feredato sodico] | > 46
CC(C)(C(=O)O)c1ccc(C(O)CCCN2CCC(C(O)(c3ccccc3)c3ccccc3)CC2)cc1 (stereo not given) [Fexofenadine] | > 46
COc1cccc2c1[C@@H]1CN(CCCCn3c(=O)[nH]c4c(sc5ncc(-c6ccccc6)nc54)c3=O)C[C@@H]1CO2 [Fiduxosin hydrochloride] | > 46
CC(C)(C)NC(=O)[C@@H]1CC[C@@H]2[C@@H]3CC[C@@H]4NC(=O)\C=C/[C@@]4(C)[C@H]3CC[C@@]12C [Finasteride] | > 46
COc1cc(O)cc(O)c1 [Flamenol] | > 46
